{"source": "patent US10426751B2", "about": "“Allosteric activators for treatment of phenylketonuria” (MCMASTER UNIVERSITY, priority 2015, dated 2019)", "key": {"WT-PAH [1]": {"target": "T1, WT-PAH (Homo sapiens, UniProt P00439)", "T1 construct": "made in house; the paragraph itself says 'eukaryotic cell cultures' (pMAL vector, Martinez laboratory, University of Bergen)", "T1 sequence (P00439 1-452)": "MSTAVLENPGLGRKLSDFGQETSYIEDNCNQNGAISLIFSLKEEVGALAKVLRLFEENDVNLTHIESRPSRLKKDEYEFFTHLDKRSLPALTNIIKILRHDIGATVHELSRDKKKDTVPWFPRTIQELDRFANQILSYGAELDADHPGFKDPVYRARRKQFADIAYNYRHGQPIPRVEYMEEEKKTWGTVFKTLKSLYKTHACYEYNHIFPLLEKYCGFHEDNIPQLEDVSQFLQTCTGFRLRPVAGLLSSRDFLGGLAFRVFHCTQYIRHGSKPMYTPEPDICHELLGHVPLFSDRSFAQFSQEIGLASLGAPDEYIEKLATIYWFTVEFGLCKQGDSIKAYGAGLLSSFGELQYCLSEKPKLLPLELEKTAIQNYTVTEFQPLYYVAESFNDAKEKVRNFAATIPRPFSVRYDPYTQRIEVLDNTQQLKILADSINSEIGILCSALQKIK", "assay": "Primary screen (READ): ligand-induced stabilization of PAH activity in 8 M urea, Tyr formation by CE-UV", "type": "biochemical", "conditions": "ligand 20 μM; for stabilization / enhancement effect on PAH activity (in words): denaturing conditions", "procedure": "(§1) Tetrameric human phenylalanine hydroxylase (PAH) enzyme kinetic assays were performed off-line under standardized conditions prior to quantification of Tyr formation by CE with UV detection. Enzyme assays were performed by first mixing together Phe (1 mM), catalase (100 nM) and PAH (0.25 μM/subunit) in a reaction buffer (20 mM HEPES and 200 mM NaCl, pH 7.0) that were equilibrated at 25° C. for 4 min. Then, ferrous (Fe^2+) ammonium sulfate (100 μM) was added to the solution for 1 min and the reaction was subsequently initiated by addition of BH4 ([…]) with DTT (5 mM) using a total volume of 100 μL. The reaction mixture was then vortexed for 60 s followed by sonication for 2 min prior to centrifugation for 10 s at 4 g and storage in a refrigerator (+4° C.). An aliquot (20 μL) was withdrawn from the quenched enzyme reaction and placed in a micro vial containing Me-Tyr as IS (100 μM) prior to CE analysis. The stability of the quenched enzyme reaction was confirmed by intermittent analysis of PAH activity over 6 h at room temperature, and no significant changes in the Tyr/IS or Phe/Tyr response ratio were measured. Enzymatic reactions were performed for both WT-PAH and two PAH mutants by pre-equilibrating each ligand for 10 min prior to addition of ferrous ion and BH4/DDT as described in enzyme reaction protocol in order to assess for ligand-induced PAH inhibition or activation.\nUnlike thermal stability assays that can induce protein aggregation, chemical denaturants are more suitable as perturbants to promote unfolding and enzyme inactivation while solubilizing multimeric proteins. In this context, restoration of enzyme activity upon denaturation (READ) was first introduced to characterize PCs that stabilize yet enhance the activity of a lysosomal enzyme, β-glucocerebrosidase (GCase). Herein, READ was modified, further optimized and validated for primary screening of PCs for the cytosolic enzyme (PAH) using a chemical library containing structurally unique compounds with drug-like activity. For instance, the primary screen was used to measure ligand-induced stabilization of PAH by extrinsic small molecules that impart greater resistance to urea unfolding as compared to ligand-free apo-enzyme conditions. PAH activity was first examined as a function of urea concentration (0 to 8 M) and pre-equilibration time (10 min to 2 hr) in order to determine optimum conditions where residual enzyme activity was largely attenuated below 10% due to protein unfolding. Protein unfolding was performed in triplicate offline with the enzyme reaction buffer (20 mM HEPES and 200 mM NaCl, pH 7.0) using tetrameric human PAH (1 μM and/or 0.1 μM) or mutant PAH (1 μM and/or 0.1 μM) incubated 10 min in 0 M or 8 M urea in the presence or absence of ligand (20 μM). Dose-response studies (0, 2.0 and 20 μM) were subsequently performed in triplicate on screen-positive compounds using re-synthesized ligands in order to further validate initial screen results. In all cases, quenched enzyme reactions were processed as described previously prior to CE analysis. PAH activity measurements based on Tyr formation at 8M urea with the presence or absence of PC were normalized to 0 M urea for each aliquot enzyme reaction to minimize long-term variation, which also enables direct comparison of the ligand-induced stabilization activity under denaturing conditions (8M urea) while confirming inhibition and activation effects for ligands under native conditions (0 M urea)."}, "R261Q PAH mutant": {"target": "T2, R261Q PAH mutant (Homo sapiens, UniProt P00439, R261Q)", "T2 construct": "made in house; the paragraph itself says 'eukaryotic cell cultures' (pMAL vector)", "T2 sequence (P00439 1-452 R261Q)": "T1 sequence (P00439 1-452) with R261Q", "assay": "PKU-mutant activity enhancement without chemical denaturants, CE-UV", "type": "biochemical", "conditions": "ligand 20 μM, no denaturant", "procedure": "Expression of recombinant human WT-PAH and two PAH mutants ([…]) as fusion protein with maltose-binding protein in […] using pMAL expression vector was performed by the Martinez laboratory at the University of Bergen as described in Svebak et al., Biochem. J., 1995, 306, 589-597. Briefly, purification of the fusion proteins expressed in the pMAL vector system was performed using affinity chromatography followed by size-exclusion chromatography to remove low molecular weight components. Subsequently, the fusion proteins were cleaved by the restriction protease factor Xa and then phosphorylated by cyclic adenosine monophosphate (cAMP)-dependent protein kinase. The two clinically relevant PAH mutants, I65T and R261Q comprise single-point mutations in the regulatory and catalytic domain, respectively which are associated with highly variable phenotypes ranging from mild to classical PKU. For instance, patients with R261Q genotypes are reported to have inconsistent responses to BH4 therapy. In this work, I65T and R261Q PAH mutants were measured to have residual catalytic activities of (35±1)% and (5±0.5)% relative to WT PAH under standardized conditions (i.e., enzyme concentrations, assay buffer etc.), respectively. Stock solutions of WT-PAH and PAH mutants were prepared in enzyme reaction buffer (20 mM HEPES pH 7.0, 200 mM NaCl), and divided into separate 10 μL aliquots in 0.5 mL sterilized centrifuge tubes prior to storage at −80° C. Note that all enzyme assays were performed on aliquots of frozen enzymes thawed slowly in the fridge prior to daily use.\nas §1\n(§2) For instance, a recovery of 50% of residual enzyme activity was achieved without ligand when PAH was incubated in 8.0 M urea after its dilution to 0.5 M urea to trigger protein refolding. In order to further reduce enzyme reversibility, the recovery of PAH activity was subsequently assessed when it was incubated using 6.0 M GndCl for 10 min and subsequently diluted to 0.5 M GndCl in the presence or absence of screen-positive ligands (20 μM) in enzyme reaction buffer with PAH activity measurements performed by CE as described previously. […] Two lead compounds and several analogs of SA were subsequently tested using two different mutants of PAH (I65T and R261Q) without chemical denaturants after the two-tiered screening."}, "WT-PAH [2]": {"target": "T1, WT-PAH", "assay": "Chaperone (refolding) assay: PAH activity after dilution from 6.0 M to 0.5 M GndCl", "type": "biochemical", "conditions": "for chaperone activity upon refolding (in words): ligand 20 μM", "procedure": "as §2"}, "WT-PAH [3]": {"target": "T1, WT-PAH", "assay": "PAH enzyme activity under native conditions (0 M urea), ligand-induced inhibition or activation", "type": "biochemical", "conditions": "ligand 20 μM", "procedure": "as §1, with “An aliquot (20 μL) was withdrawn from the quenched enzyme reaction and placed in a micro vial containing Me-Tyr as IS (100 μM) prior to CE analysis.” left out, “Enzymatic reactions were performed for both WT-PAH and two PAH mutants by pre-equilibrating each ligand for 10 min prior to addition of ferrous ion and BH4/DDT as described in enzyme reaction protocol in order to assess for ligand-induced PAH inhibition or activation.” left out\nUnlike thermal stability assays that can induce protein aggregation, chemical denaturants are more suitable as perturbants to promote unfolding and enzyme inactivation while solubilizing multimeric proteins. In this context, restoration of enzyme activity upon denaturation (READ) was first introduced to characterize PCs that stabilize yet enhance the activity of a lysosomal enzyme, β-glucocerebrosidase (GCase). […]"}, "beta-amyloid peptide": {"system": "beta-amyloid peptide", "conditions": "cited from earlier work"}, "Plasmodium falciparum": {"system": "Plasmodium falciparum", "conditions": "read-out: IC50 (competitive inhibitor); cited from earlier work"}}, "note": "Numbering of substitutions follows the chain as printed. “Also recorded” adds a separate entry of the source.", "data": [{"smiles": "Nc1c(Br)cc(Br)cc1CN[C@H]1CC[C@H](O)CC1", "note": "[ambroxol]", "values": [{"measurement": "stabilization / enhancement effect on PAH activity (in words)", "setting": "WT-PAH [1]", "value": "no enhancement effect"}]}, {"smiles": "O[C@H]1[C@H](O)[C@@H](O)[C@H](O)[C@@H](O)[C@H]1O", "note": "[myo-inositol]", "values": [{"measurement": "stabilization / enhancement effect on PAH activity (in words)", "setting": "WT-PAH [1]", "value": "no significant activity"}]}, {"smiles": "O=C(O)C1=C[C@@H](O)[C@@H](O)[C@H](O)C1", "note": "[SA, (3R,4S,5R)-3,4,5-trihydroxycyclohex-1-ene-1-carboxylic acid]", "values": [{"measurement": "activity enhancement of R261Q PAH mutant", "setting": "R261Q PAH mutant", "value": "3-5 fold"}, {"measurement": "activity enhancement of R261Q PAH mutant", "setting": "R261Q PAH mutant; listed as HCH", "value": 5, "unit": "fold"}, {"measurement": "chaperone activity upon refolding (in words)", "setting": "WT-PAH [2]", "value": "significantly restored"}, {"measurement": "residual activity of WT-PAH after refolding", "setting": "WT-PAH [2]; without ligand (7±0.5) %", "value": "~38±2", "unit": "%"}, {"measurement": "inhibition or activation of WT-PAH under native conditions (in words)", "setting": "WT-PAH [3]", "value": "weak activation effects; also recorded: lack of SA inhibitory effects"}, {"measurement": "PAH residual activity (% of WT-PAH)", "setting": "WT-PAH [1]; 8 M urea, ligand-free enzyme (7±0.5) %", "value": 16, "unit": "%"}]}, {"smiles": "O=C(O)c1cc(O)c(O)c(O)c1", "note": "[GA, gallic acid]", "values": [{"measurement": "oligomerization of beta-amyloid peptide (in words)", "setting": "beta-amyloid peptide", "value": "inhibits oligomerization of beta-amyloid peptide"}, {"measurement": "chaperone activity upon refolding (in words)", "setting": "WT-PAH [2]", "value": "destabilizes and reduces the activity of WT-PAH upon refolding"}]}, {"smiles": "O=C(O)C1=CC(=O)[C@@H](O)[C@H](O)C1", "note": "[DSA, 3-dehydroshikimic acid]", "values": [{"measurement": "chaperone activity upon refolding (in words)", "setting": "WT-PAH [2]", "value": "abolishes the chaperone activity"}]}, {"smiles": "OC[C@H]1CNC[C@@H](O)[C@@H]1O", "note": "[isofagomine]", "values": [{"measurement": "stabilization / enhancement effect on PAH activity (in words)", "setting": "WT-PAH [1]", "value": "no enhancement effect"}]}, {"smiles": "OCCN1CCN(CCCN2c3ccccc3Sc3ccc(C(F)(F)F)cc32)CC1", "note": "[fluphenazine]", "values": [{"measurement": "stabilization / enhancement effect on PAH activity (in words)", "setting": "WT-PAH [1]", "value": "no enhancement effect"}]}, {"smiles": "O=C(O)C1(O)C[C@@H](O)C(O)[C@H](O)C1", "note": "(stereo partly drawn) [QA, D-quinic acid]", "values": [{"measurement": "chaperone activity upon refolding (in words)", "setting": "WT-PAH [2]", "value": "significantly restored; also recorded: chaperone activity"}, {"measurement": "stabilization / enhancement effect on PAH activity (in words)", "setting": "WT-PAH [1]", "value": "exhibits PAH stabilization"}]}, {"smiles": "O=C(O)C1=CC(O)C(O)C(O)C1F", "note": "(stereo not drawn) [6-fluoro-shikimate]", "values": [{"measurement": "IC50", "setting": "Plasmodium falciparum", "value": 15, "unit": "µM"}]}, {"smiles": "CCOC(=O)C1=C[C@@H](O)[C@@H](O)[C@H](O)C1", "note": "[ESA, ethoxyshikimate]", "values": [{"measurement": "chaperone activity upon refolding (in words)", "setting": "WT-PAH [2]", "value": "abolishes the chaperone activity"}]}, {"smiles": "COc1ccc([C@@H]2Sc3ccccc3N(CCN(C)C)C(=O)[C@@H]2OC(C)=O)cc1", "note": "[diltiazem]", "values": [{"measurement": "stabilization / enhancement effect on PAH activity (in words)", "setting": "WT-PAH [1]", "value": "no enhancement effect"}]}]}
